Assay results from patent US20210369681A1, “Identification of PPM1D mutations as a novel biomarker for NAMPTi sensitivity” (YALE UNIVERSITY, priority 2018, published 2021).

Tests used:
[1] = tested on: parental and PPM1Dtrnc. immortalized human astrocytes; assay type: cell-based
Procedure: In vitro cellular viability assessments of immortalized human astrocytes, MCF7, and U2OS cell lines were made using a previously described, high-content, microscopy platform developed by our group. In brief, cells were plated in a 96-well plate at a density of 2000 cells/well, and incubated overnight. Drug treatment or vehicle (0.5% DMSO) control was administered, and cells were incubated for 72-96 hours as indicated. Plates were then washed with PBS and fixed with ice-cold 70% ethanol for 2 hours at 4° C. […] Cells were imaged using a Cytation3 imager (BioTek), and images were stitched and analyzed as described above. Viability assessments were made comparing drug treated to vehicle treated conditions. SU-DIPG and HSJD-DIPG-007 spheroid viability was assessed using CytoTox-Glo (Promega), according to the manufacturer's protocols. Spheroids were treated with FK866 for 120 hours before analysis using this method. IC50 calculations were made using GraphPad Prism, by fitting data to an [inhibitor] vs response−variable slope four parameter nonlinear regression (as depicted in the representative figures). siRNA Transfection and Viability Analysis Individual NAPRT targeting siRNAs were ordered from Dharmacon Inc. (Horizon Discovery), with target sequences listed in Table 1. The panel of siRNAs used for synthetic lethal viability screening was hand-selected and ordered from Dharmacon Inc. and were provided in ON-TARGET plus mixtures, each containing up to four unique siRNAs per gene. 2×10^5 astrocytes were reverse-transfected with different siRNAs (200 nM final concentration), using Lipofectamine RNAiMAX (Invitrogen), according to manufacturer's protocols. For individual siRNAs, cells were incubated for 72 hours, pelleted, and lyzed for immunoblotting. For the siRNA screen, cells were incubated for 24 hours and split to different condition plates, where they were incubated for an additional 24 hours. Cells were then treated with the described doses of FK866, and viability was assessed after 72 hours of drug treatment, using the image-based pipeline described above. Viability measurements were made for each siRNA, and normalized to FK866-untreated conditions.
Given the role of PPM1D in DDR pathways, we performed a small molecule synthetic lethal screen with a panel of inhibitors against key DNA repair and metabolic proteins, using methodology described previously by our group.

[2] = tested on: NAD and NADP levels in WT and PPM1Dtrnc. astrocytes; test: NAD / NADP quantification in astrocytes; assay type: cell-based, human; conditions: 10 nM FK866, 24 hrs
Procedure: The NAD metabolome was quantitatively analyzed using LC-MS/MS, using two separations on Hypercarb and 13C metabolite standards. Subsequent NAD level analyses were performed using a NAD/NADH Quantification kit (Sigma), as per the manufacturer's specifications. Me/hME-DIP, Bisulfite Conversion, and Global 5-hmC Detection Genomic DNA was purified using the Wizard Genomic DNA purification kit (Promega), and subsequently immunoprecipitated or bisulfite-converted. […] Immunoprecipitated DNA was extracted with phenol/chloroform and analyzed using quantitative PCR (qPCR), as described below. Bisulfite conversion was performed via EpiMark Bisulfite Conversion kit (NEB). Modified DNA was then amplified using EpiMark Hot Start Taq DNA polymerase (NEB), with primers listed in Table 1, and purified with a PCR purification kit (Qiagen). Methylation was then assessed through Sanger-sequencing of the NAPRT promoter. Global 5-hydroxymethylcytosine levels were assessed via the Global 5-hmC quantification kit (Active Motif), according to manufacturer's protocols. Quantitative PCR (qPCR) mRNA transcripts were purified from cells using a RNAeasy kit (Qiagen) and subsequently reverse transcribed using a High Capacity cDNA reverse transcription kit (Applied Biosystems). PPM1D and NAPRT gene expression levels were assessed through qPCR with TaqMan fluorescent probes (all from Applied Biosystems): PPM1D (4331182), NAPRT (4351372), and Actin (4333762F), according to manufacturer's protocol. Expression level fold change was calculated via ΔΔCt comparison, using Actin as a reference gene. The NAPRT promoter region was quantitated via qPCR using Fast Start Universal SYBR Green Master with ROX (Roche), and primers listed in Table 1. All qPCR reactions were run on a StepOnePlus Real Time PCR system (Applied Biosystems).

SU-DIPG-XXXV = test: DIPG spheroid viability (CytoTox-Glo), PPM1D mutant line; assay type: cell-based, human; conditions: 120 hr treatment; spheroids
[3] = tested on: SU-DIPG-IV, XIII, and XVII (WT DIPG lines); test: DIPG spheroid viability (CytoTox-Glo), SU-DIPG lines; assay type: cell-based, human
U2OS = U2OS cell viability; assay type: cell-based, human; conditions: 96 hr treatment
Procedure: (§1) hTert/E6/E7 immortalized human astrocytes were acquired from the lab of Dr. Timothy Chan, and have been previously characterized. Unless noted otherwise, astrocytes were grown in DMEM, high glucose (ThermoFisher Scientific/Gibco) plus 10% FBS (Gibco) as adherent monolayers. U2OS cells were purchased from ATCC, and were grown in DMEM, high glucose plus 10% FBS. MCF7 cells were grown in RPMI1640 (ThermoFisher Scientific/Gibco) with the addition of 10% FBS.

MCF7 = MCF7 cell viability; assay type: cell-based, human; conditions: 96 hr treatment
Procedure: as §1

[4] = tested on: PPM1Dtrnc. astrocyte xenografts; test: PPM1Dtrnc. astrocyte cell line xenografts; assay type: in vivo, NOD scid gamma (NSG) mice; conditions: 20 mg/kg BID i.p.
Procedure: (§2) Astrocyte xenograft studies were performed in NOD scid gamma (NSG, NOD.Cg-Prkdc^scidIl2rg^tm1Wj1/SzJ female mice 3-4 weeks old) mice. For cell line xenografts, 5×10^6 WT or PPM1D^trnc. astrocytes, stably expressing firefly luciferase (lentivirus-plasmids from Cellomics Technology; PLV-10003), were combined with Matrigel (Corning, 47743-722) in a total volume of 0.2 mL. Cell-Matrigel suspension was injected subcutaneously into both the right and left flanks of shaved NSG mice. Mice were randomly sorted into treatment groups, and tumor burden and growth were measured on a weekly basis, via BLI intensity, as described below. FK866 was solubilized in DMSO at a concentration of 80 mg/ml. Mice were then administered the drug intraperitoneally twice a day for 4 days, repeated weekly for 3 weeks at 20 mg/kg in 10% cyclodextrin. Treatment began after one month of growth. Tumors were harvested after completion of treatment, and mass for each tumor was measured. Serially transplanted xenografts were created via continuous transplantation of PPM1D^trnc. cell line xenografts in NSG mice. […] Mice were sorted randomly into treatment groups, and tumor volume was measured using standard caliper-based techniques. Tumor volume was calculated as length×width^2×0.52. […] Mice were sorted randomly into treatment groups, and tumor burden was assessed through caliper measurement and volume calculations. […]

[5] = tested on: serially-transplanted PPM1D mutant astrocyte xenografts; test: Serially-transplanted PPM1D mutant astrocyte xenografts; assay type: in vivo, NSG mice; conditions: 20 mg/kg BID
Procedure: as §2

[6] = tested on: U2OS cell line xenografts; test: U2OS cell line xenografts; assay type: in vivo, athymic nude mice
[7] = tested on: NAPRT expression in PPM1Dtrnc. cells; test: NAPRT immunoblot after DNA demethylating agents; assay type: cell-based, human; conditions: varying doses, 72 hrs
Procedure: PPM1D^trnc. astrocytes were treated with 50 µg/mL cycloheximide or 1 μM MG132 (both Sigma) for the indicated amount of time. Cells were then washed, pelleted, and lyzed for subsequent immunoblotting approaches, as described above. Quantification of immunoblot intensity was calculated using ImageJ software, and consisted of multiple (n=3) blots. Irradiation of cells was performed using an X-RAD KV irradiator (Precision X-ray), and treatment consisted of an unfractionated, 10 Gy dose. PPM1D inhibitor treatment with GSK2830371 (Selleckchem), consisted of 50 nM treatment, 24 hours prior to IR. FK866 (Selleckchem), GPP78 (Tocris Bioscience), STF118804 (Tocris Bioscience), STF31 (Tocris Bioscience), 5-azacytidine (Selleckchem), and Decitabine (Selleckchem) were dissolved in DMSO and used for treatment as indicated.

O=C(/C=C/c1cccnc1)NCCCCC1CCN(C(=O)c2ccccc2)CC1 [FK866]
IC50 ratio (Parental/PPM1Dtrnc.) [1]: 9746.59
Decline of NAD and NADP compared with WT astrocytes ([2]; PPM1Dtrnc. cells): significantly greater
Cellular pools of NAD and NADP ([2]; WT astrocytes): dropped markedly
Cytotoxic doses (SU-DIPG-XXXV): low, single-digit nanomolar range
Sensitivity to FK866 in media devoid of nicotinic acid ([3]; all SU-DIPG spheroid cultures tested, growth media devoid of nicotinic acid (NA)): strong sensitivity
Response to FK866 treatment ([3]; three WT DIPG lines, 120 hr, NA-containing media): resistant
Sensitivity to FK866 treatment (U2OS): strong sensitivity
Sensitivity to FK866 treatment (MCF7): strong sensitivity
Lower final tumor mass, fold change ([4]; 3 cycles, versus vehicle alone): 3.1
Reduction in tumor burden (BLI), fold change ([4]; 4 days weekly for 3 weeks, after three weeks, vs vehicle): 4.93
Reduced overall tumor size, fold change ([5]; 3 cycles of four days on, three days off, calipers and BLI, vs vehicle): 17.1
Tumor growth delay (Kaplan-Meier) ([5]; 3 cycles, compared to a vehicle control): significantly delayed
Tumor volume, fold change ([6]; 20 mg/kg BID for 3 four day weekly cycles, vs vehicle): 5.86
Body mass difference between the treatment groups ([6]; all mice on study, throughout the dosing schedule (FIG. 13B)): no significant differences

Nc1ncn([C@@H]2O[C@H](CO)[C@@H](O)[C@H]2O)c(=O)n1 [azacytidine]
Reversal of NAPRT gene silencing [7]: failed to reverse
